Data on 26 molecules can be found in patent US8436023B2, “Cyclohexyl-azetidinyl antagonists of CCR2” (Janssen Pharmaceutica N.V., priority 2010, dated 2013).

In the test the target is T1, CCR2 (Homo sapiens, UniProt P41597).
T1 construct: host or cells: THP-1 human monocytic cells
T1 sequence (P41597 1-360 isoform P41597-2): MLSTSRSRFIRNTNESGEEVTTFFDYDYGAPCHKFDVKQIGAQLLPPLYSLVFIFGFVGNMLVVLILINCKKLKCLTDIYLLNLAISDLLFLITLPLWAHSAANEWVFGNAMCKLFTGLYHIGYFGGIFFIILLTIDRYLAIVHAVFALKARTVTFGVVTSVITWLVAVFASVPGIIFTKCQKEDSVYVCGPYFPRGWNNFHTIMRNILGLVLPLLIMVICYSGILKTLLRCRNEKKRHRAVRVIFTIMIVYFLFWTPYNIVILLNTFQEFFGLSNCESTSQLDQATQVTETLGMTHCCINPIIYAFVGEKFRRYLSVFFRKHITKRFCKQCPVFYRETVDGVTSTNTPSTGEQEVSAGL
Description: MCP-1 Receptor Binding Assay in THP-1 Cells. As to conditions: 0.5 nM 125I labeled MCP-1, 2 hours at 30° C., less polar isomer tested where stated, read-out: Inhibition of MCP-1 Binding IC50, CCR2 Binding. On the procedure:
MCP-1 Receptor Binding Assay in THP-1 Cells
Human monocytic cell line THP-1 cells were obtained from American Type Culture Collection (Manassas, Va., USA). The THP-1 cells were grown in RPMI-1640 (RPMI: Roswell Park Memorial Institute Medium-cell culture growth media) supplemented with 10% fetal bovine serum in a humidified 5% CO2 atmosphere at 37° C. The cell density was maintained […].
THP-1 (cells were incubated with 0.5 nM ^125I labeled MCP-1 (Perkin-Elmer Life Sciences, Inc. Boston, Mass.) in the presence of varying concentrations of either unlabeled MCP-1 (R & D Systems, Minneapolis, Minn.) or test compound for 2 hours at 30° C. in a 96 well plate. Cells were then harvested onto a filter plate, dried, and 20 μL of Microscint 20 was added to each well. Plates were counted in a TopCount NXT, Microplate Scintillation & Luminescence Counter (Perkin-Elmer Life Sciences, Inc. Boston, Mass.). Blank values (buffer only) were subtracted from all values and drug treated values were compared to vehicle treated values. 1 μM cold MCP-1 was used for nonspecific binding.
Where an IC50 value was not obtained for a particular compound, the percent inhibition is provided at a test concentration of 25 μM.
In the case of `Cn1nc(NCC(=O)NC2CN(C3CCC(O)(c4ncco4)CC3)C2)c2cc(C(F)(F)F)ccc21` (centres unmarked) [Example 26, N-[1-(4-Hydroxy-4-oxazol-2-yl-cyclohexyl)-azetidin-3-yl]-2-(1-methyl-5-trifluoromethyl-1H-indazol-3-ylamino)-acetamide], the IC50 amounted to 146 nM.

Turning to `Cn1ccnc1C1(O)CCC(N2CC(NC(=O)CNc3nn(C)c4ccc(C(F)(F)F)cc34)C2)CC1` (centres unmarked) [Example 27, N-{1-[4-Hydroxy-4-(1-methyl-1H-imidazol-2-yl)-cyclohexyl]-azetidin-3-yl}-2-(1-methyl-5-trifluoromethyl-1H-indazol-3-ylamino)-acetamide], the IC50 turned out to be 1400 nM.

For `Cc1ncc(C2(O)CCC(N3CC(NC(=O)CNc4nn(C)c5ccc(C(F)(F)F)cc45)C3)CC2)s1` (centres unmarked) [Example 28, N-{-[4-Hydroxy-4-(2-methyl-thiazol-5-yl)-cyclohexyl]-azetidin-3-yl}-2-(1-methyl-5-trifluoromethyl-1H-indazol-3-ylamino)-acetamide], the IC50 was found to be 19 nM.

In the case of `Cn1nc(NCC(=O)NC2CN(C3CCC(O)(c4ccccc4)CC3)C2)c2cc(C(F)(F)F)ccc21` (centres unmarked) [Example 29, N-[1-(4-Hydroxy-4-phenyl-cyclohexyl)-azetidin-3-yl]-2-(1-methyl-5-trifluoromethyl-1H-indazol-3-ylamino)-acetamide], the IC50 worked out at 19 nM.

Turning to `Cc1ccc(C2(O)CCC(N3CC(NC(=O)CNc4nn(C)c5ccc(C(F)(F)F)cc45)C3)CC2)cn1` (centres unmarked) [Example 30, N-{1-[4-Hydroxy-4-(6-methyl-pyridin-3-yl)-cyclohexyl]-azetidin-3-yl}-2-(1-methyl-5-trifluoromethyl-1H-indazol-3-ylamino)-acetamide], the IC50 worked out at 7.5 nM.

Consider `Cn1nc(NCC(=O)NC2CN(C3CCC(NC(=O)OC(C)(C)C)CC3)C2)c2cc(C(F)(F)F)ccc21` (centres unmarked) [Example 31, (4-{3-[2-(1-Methyl-5-trifluoromethyl-1H-indazol-3-ylamino)-acetylamino]-azetidin-1-yl}-cyclohexyl)-carbamic acid tert-butyl ester], for which the half-maximal inhibitory concentration (IC50) was 76 nM.

Turning to `CCOC(=O)C1CCC(N2CC(NC(=O)CNc3nn(C)c4ccc(C(F)(F)F)cc34)C2)CC1` (centres unmarked) [Example 32, 4-{3-[2-(1-Methyl-5-trifluoromethyl-1H-indazol-3-ylamino)-acetylamino]-azetidin-1-yl}-cyclohexane carboxylic acid ethyl ester], the IC50 came to 13 nM.

Take `Cn1nc(NCC(=O)NC2CN(C3CCC(CO)CC3)C2)c2cc(C(F)(F)F)ccc21` (centres unmarked) [Example 33, N-[1-(4-Hydroxymethyl-cyclohexyl)-azetidin-3-yl]-2-(1-methyl-5-trifluoromethyl-1H-indazol-3-ylamino)-acetamide]: the IC50 stood at 44 nM.

On to `CCOCC1CCC(N2CC(NC(=O)CNc3nn(C)c4ccc(C(F)(F)F)cc34)C2)CC1` (centres unmarked) [Example 34, N-[1-(4-Ethoxymethyl-cyclohexyl)-azetidin-3-yl]-2-(1-methyl-5-trifluoromethyl-1H-indazol-3-ylamino)-acetamide], for which the IC50 was determined as 27 nM.

For `CCOC1CCC(N2CC(NC(=O)CNc3nn(C)c4ccc(C(F)(F)F)cc34)C2)CC1` (centres unmarked) [Example 36, N-[1-(4-Ethoxy-cyclohexyl)-azetidin-3-yl]-2-(1-methyl-5-trifluoromethyl-1H-indazol-3-ylamino)-acetamide], the IC50 amounted to 228 nM.

In the case of `C=CCOC1CCC(N2CC(NC(=O)CNc3nn(C)c4ccc(C(F)(F)F)cc34)C2)CC1` (centres unmarked) [Example 37, N-[1-(4-Allyloxy-cyclohexyl)-azetidin-3-yl]-2-(1-methyl-5-trifluoromethyl-1H-indazol-3-ylamino)-acetamide], the IC50 was 136 nM.

With `Cn1nc(NCC(=O)NC2CN(C3CCC(C#N)CC3)C2)c2cc(C(F)(F)F)ccc21` (centres unmarked) [Example 38, N-[1-(4-Cyano-cyclohexyl)-azetidin-3-yl]-2-(1-methyl-5-trifluoromethyl-1H-indazol-3-ylamino)-acetamide], the 50% inhibitory concentration (IC50) was determined as 150 nM.

With `Cn1nc(NCC(=O)NC2CN(C3CCC(C(N)=O)CC3)C2)c2cc(C(F)(F)F)ccc21` (centres unmarked) [Example 39, 4-{3-[2-(1-Methyl-5-trifluoromethyl-1H-indazol-3-ylamino)-acetylamino]-azetidin-1-yl}-cyclohexane carboxylic acid amide], the IC50 was 380 nM.

`Cn1nc(NCC(=O)NC2CN(C3CCC(C(=O)NCCO)CC3)C2)c2cc(C(F)(F)F)ccc21` (centres unmarked) [Example 40, 4-{3-[2-(1-Methyl-5-trifluoromethyl-1H-indazol-3-ylamino)-acetylamino]-azetidin-1-yl}-cyclohexane carboxylic acid (2-hydroxy-ethyl)-amide]: the IC50 was determined as 300 nM.

Consider `O=C(CNc1n[nH]c2ccc(C(F)(F)F)cc12)NC1CN(C2CCC(O)(c3cccnc3)CC2)C1` (centres unmarked) [Example 41, N-[1-(4-Hydroxy-4-pyridin-3-yl-cyclohexyl)-azetidin-3-yl]-2-(5-trifluoromethyl-1H-indazol-3-ylamino)-acetamide], for which the IC50 amounted to 31 nM.

As for `O=C(CNc1n[nH]c2ccc(C(F)(F)F)cc12)NC1CN(C2CCC(O)(c3cncs3)CC2)C1` (centres unmarked) [Example 42, N-[1-(4-Hydroxy-4-thiazol-5-yl-cyclohexyl)-azetidin-3-yl]-2-(5-trifluoromethyl-1H-indazol-3-ylamino)-acetamide], the IC50 stood at 16 nM.

As for `Cc1ccc(C2(O)CCC(N3CC(NC(=O)CNc4n[nH]c5ccc(C(F)(F)F)cc45)C3)CC2)cn1` (centres unmarked) [Example 43, N-{1-[4-Hydroxy-4-(6-methyl-pyridin-3-yl)-cyclohexyl]-azetidin-3-yl}-2-(5-trifluoromethyl-1H-indazol-3-ylamino)-acetamide], the concentration for half-maximal inhibition (IC50) came out at 5.8 nM.

Regarding `COc1ccc(C2(O)CCC(N3CC(NC(=O)CNc4n[nH]c5ccc(C(F)(F)F)cc45)C3)CC2)cn1` (centres unmarked) [Example 44, N-{1-[4-Hydroxy-4-(6-methoxy-pyridin-3-yl)-cyclohexyl]-azetidin-3-yl}-2-(5-trifluoromethyl-1H-indazol-3-ylamino)-acetamide], the IC50 came to 16 nM.

As to `O=C(CNc1n[nH]c2ccc(C(F)(F)F)cc12)NC1CN(C2CCC(c3ccc4c(c3)OCO4)CC2)C1` (centres unmarked) [Example 45, N-[1-(4-Benzo[1,3]dioxol-5-yl-cyclohexyl)-azetidin-3-yl]-2-(5-trifluoromethyl-1H-indazol-3-ylamino)-acetamide], the half-inhibitory concentration (IC50) was determined as 6.6 nM.

With `NC(=O)Cc1ccc(C2CCC(N3CC(NC(=O)CNc4n[nH]c5ccc(C(F)(F)F)cc45)C3)CC2)cc1` (centres unmarked) [Example 47, 2-[4-(4-{3-[2-(5-Trifluoromethyl-1H-indazol-3-ylamino)-acetylamino]-azetidin-1-yl}-cyclohexyl)-phenyl]-acetamide], the IC50 was found to be 12 nM.

Consider `N#CC1CCC(N2CC(NC(=O)CNc3n[nH]c4ccc(C(F)(F)F)cc34)C2)CC1` (centres unmarked) [Example 48, N-[1-(4-Cyano-cyclohexyl)-azetidin-3-yl]-2-(5-trifluoromethyl-1H-indazol-3-ylamino)-acetamide], for which the IC50 came out at 430 nM.

For the molecule `CCOC(=O)C1CCC(N2CC(NC(=O)CNc3n[nH]c4ccc(C(F)(F)F)cc34)C2)CC1` (centres unmarked) [Example 50, 4-{3-[2-(5-Trifluoromethyl-1H-indazol-3-ylamino)-acetylamino]-azetidin-1-yl}-cyclohexane carboxylic acid ethyl ester], the IC50 is 27 nM.

As for `CC(C)(C)OC(=O)NC1CCC(N2CC(NC(=O)CNc3n[nH]c4ccc(C(F)(F)F)cc34)C2)CC1` (centres unmarked) [Example 51, (4-{3-[2-(5-Trifluoromethyl-1H-indazol-3-ylamino)-acetylamino]-azetidin-1-yl}-cyclohexyl)-carbamic acid tert-butyl ester], the IC50 was 87 nM.

`CC(C)C1CCC(N2CC(NC(=O)CNc3n[nH]c4ccc(C(F)(F)F)cc34)C2)CC1` (centres unmarked) [Example 52, N-[1-(4-Isopropyl-cyclohexyl)-azetidin-3-yl]-2-(5-trifluoromethyl-1H-indazol-3-ylamino)-acet amide]: the IC50 came out at 370 nM.

As for `O=C(CNc1n[nH]c2ccc(C(F)(F)F)cc12)NC1CN(C2CCC(n3ccccc3=O)CC2)C1` (centres unmarked) [Example 53, N-{1-[4-(2-Oxo-2H-pyridin-1-yl)-cyclohexyl]-azetidin-3-yl}-2-(5-trifluoromethyl-1H-indazol-3-ylamino)-acetamide], the IC50 was determined as 63 nM.

For the molecule `Cn1nc(NCC(=O)NC2CN(C3CCC(O)(c4nccs4)CC3)C2)c2cc(OC(F)(F)F)ccc21` (centres unmarked) [Example 54, N-[1-(4-Hydroxy-4-thiazol-2-yl-cyclohexyl)-azetidin-3-yl]-2-(1-methyl-5-trifluoromethoxy-1H-indazol-3-ylamino)-acetamide], the IC50 was 35 nM.
